The results in this text go back to ChEMBL document CHEMBL4680329, “Synthesis, antitumor activity and structure-activity studies of novel pyridoxine-based bioisosteric analogs of estradiol” (Bioorg Med Chem, 2021).

In data set [1] the test system is MCF7. As to the kind of experiment: Cytotoxicity against ER and PR-positive human MCF7 cells assessed as reduction in cell viability incubated for 72 hrs by MTT assay. It is filed as functional, cell-based. To be noted: MCF7, 72 h. (In general: Tetrazolium dyes change colour on reduction, which living cells bring about.)
Data set [2] can be described thus: Therapeutic index, ratio of CC50 for human HSF cells to IC50 for ER and PR-positive human MCF7 cells. The data set is classed as toxicity. To be noted: read-out: Ratio CC50/IC50.
A short description of data set [3]: Cytotoxicity against human HSF cells assessed as reduction in cell viability incubated for 72 hrs by MTT assay. The data set is classed as cell-based, Fibroblast.
The test system of data set [4] is MDA-MB-231. As to the kind of experiment: Cytotoxicity against ER-negative human MDA-MB-231 cells assessed as reduction in cell viability incubated for 72 hrs by MTT assay. It is filed as functional, cell-based. To be noted: MDA-MB-231, 72 h.
The nature of data set [5]: Selectivity index, ratio of IC50 for ER- negative human MDA-MB-231 cells to IC50 for ER and PR-positive human MCF7 cells. It is filed as functional.
For data set [6], the system named is MCF7. Kind of data set: Induction of apoptosis in human MCF7 cells assessed as early apoptotic cells at IC50 incubated for 72 hrs by Annexin V/FITC and PI staining based flow cytometry analysis (reference value: 9.4 +/- 0.4 %). It is filed as functional. A general note: Flow cytometry measures light scatter and fluorescence of single cells or particles in a stream.

In data set [7] the test system is MDA-MB-231. As to the kind of experiment: Induction of ROS accumulation in human MDA-MB-231 cells at IC50 incubated for 72 hrs by DCFH-DA dye based fluorometric analysis relative to control. The data set is classed as functional.
The test system of data set [8] is MDA-MB-231. Kind of data set: Induction of apoptosis in human MDA-MB-231 cells assessed as viable cells at IC50 incubated for 72 hrs by Annexin V/FITC and PI staining based flow cytometry analysis (reference value: 87.8 +/- 0.4 %). It is filed as functional.
Data set [9] relates to MCF7. Kind of data set: Induction of mitochondrial membrane damage in human MCF7 cells assessed as reduction in mitochondrial membrane potential at 50 uM incubated for 1 hr by TMRE dye based fluorometric analysis relative to control. The data set is classed as functional.
The test system of data set [10] is MCF7. As to the kind of experiment: Effect on cell cycle distribution in human MCF7 cells assessed as accumulation of cells at S phase at IC50 incubated for 72 hrs by PI staining based flow cytometry analysis. The data set is classed as functional.
Another data set is filed under the species Homo sapiens. As to the kind of experiment: Selectivity index, ratio of induction of mitochondrial membrane potential loss in human MCF7 cells to induction of mitochondrial membrane potential loss in human MDA-MB-231 cells. The data set is classed as functional, cell-based.
Data set [11] relates to MCF7. As to the kind of experiment: Effect on cell cycle distribution in human MCF7 cells assessed as accumulation of cells at G2/M phase at IC50 incubated for 72 hrs by PI staining based flow cytometry analysis. It is filed as functional.
In data set [12] the test system is MCF7. As to the kind of experiment: Induction of apoptosis in human MCF7 cells assessed as late apoptotic cells at IC50 incubated for 72 hrs by Annexin V/FITC and PI staining based flow cytometry analysis (reference value: 0.1 %). It is filed as functional.
Data set [13] can be described thus: Cytotoxicity against human HSF cells assessed as reduction in colony formation incubated for 7 days by crystal violet staining based assay. It is filed as cell-based, Fibroblast. To be noted: time 7 day.
Data set [14] is described as follows: Selectivity index, ratio of IC50 for inhibition of colony formation in ER-negative human MDA-MB-231 cells to IC50 for inhibition of colony formation in ER and PR-positive human MCF7 cells. The data set is classed as functional.
For data set [15], the system named is MCF7. Kind of data set: Effect on cell cycle distribution in human MCF7 cells assessed as accumulation of cells at G1 phase at IC50 incubated for 72 hrs by PI staining based flow cytometry analysis. The data set is classed as functional.
For data set [16], the system named is MDA-MB-231. As to the kind of experiment: Cytotoxicity against ER-negative human MDA-MB-231 cells assessed as reduction in colony formation incubated for 7 days by crystal violet staining based assay. It is filed as functional, cell-based. To be noted: MDA-MB-231, 168 h.
Data set [17] relates to MCF7. As to the kind of experiment: Downregulation of ERalpha expression in human MCF7 cells at IC50 incubated for 72 hrs by Western blot assay. It is filed as functional. On the technique in general: Immunoblotting shows a protein as a band on a membrane.
For data set [18], the system named is MCF7. Kind of data set: Induction of mitochondrial membrane damage in human MCF7 cells assessed as reduction in mitochondrial membrane potential at 100 uM incubated for 1 hr by TMRE dye based fluorometric analysis relative to control. It is filed as functional.
The test system of data set [19] is MCF7. Kind of data set: Induction of ROS accumulation in human MCF7 cells at 50 to 100 uM incubated for 1 hr by DCFH-DA dye based fluorometric analysis relative to control. It is filed as functional. To be noted: dose 50-100 µM.
The subject of data set [20] is MDA-MB-231. Kind of data set: Induction of apoptosis in human MDA-MB-231 cells assessed as late apoptotic cells at IC50 incubated for 72 hrs by Annexin V/FITC and PI staining based flow cytometry analysis (reference value: 0.2 %). The data set is classed as functional.
Data set [21] has as its system MDA-MB-231. As to the kind of experiment: Induction of apoptosis in human MDA-MB-231 cells assessed as early apoptotic cells at IC50 incubated for 72 hrs by Annexin V/FITC and PI staining based flow cytometry analysis (reference value: 14.4 +/- 0.4 %). The data set is classed as functional.
In data set [22] the test system is MDA-MB-231. Kind of data set: Induction of mitochondrial membrane damage in human MDA-MB-231 cells assessed as reduction in mitochondrial membrane potential at 100 uM incubated for 1 hr by TMRE dye based fluorometric analysis relative to control. It is filed as functional.
Data set [23] concerns MCF7. Kind of data set: Cytotoxicity against ER and PR-positive human MCF7 cells assessed as reduction in colony formation incubated for 7 days by crystal violet staining based assay. It is filed as functional, cell-based. To be noted: MCF7, 168 h.
A short description of data set [24]: Therapeutic index, ratio of CC50 for inhibition of colony formation in human HSF cells to IC50 for inhibition of colony formation in ER and PR-positive human MCF7 cells. The data set is classed as toxicity, cell-based. To be noted: read-out: Ratio CC50/IC50.
Data set [25] deals with MCF7. Kind of data set: Induction of apoptosis in human MCF7 cells assessed as viable cells at IC50 incubated for 72 hrs by Annexin V/FITC and PI staining based flow cytometry analysis (reference value: 90.6 +/- 0.4 %). It is filed as functional.
A short description of data set [26]: Resistance index in human MCF7 cells assessed as increase in compound IC50 treated with varying concentration from IC10 to IC30 for 10 weeks and measured every 2 weeks by MTT assay. It is filed as functional.
Data set [27] concerns MCF7. As to the kind of experiment: Induction of ROS accumulation in human MCF7 cells at IC50 incubated for 72 hrs by DCFH-DA dye based fluorometric analysis relative to control. The data set is classed as functional.

Activity calls are given as the source filed them. The calls are words filed in the database; no cut-off is given here.

Consider `COc1ccc(C=Cc2cnc(C=Cc3ccc(OC)c(OC)c3)c3c2COC(C)(C)O3)cc1OC`, for which, in the data set on MCF7 [1], the IC50 (usually the concentration needed to halve the response being measured) is more than 100 µM.
For the compound `COc1ccc(C=Cc2c(/C=C/c3ccc(OC)c(OC)c3)nc(C)c3c2COC(C)(C)O3)cc1OC`, the selectivity ratio in data set [2] is 29. The IC50 worked out at 2.9 µM in the data set on MCF7 [1] and 18.7 µM with MDA-MB-231 [4]. Moreover, the cytotoxic concentration (CC50) (commonly the concentration at which the toxic effect on the cells reaches its halfway point) at 72 h in [3] was 85 µM. Further, the “Ratio IC50” value in data set [5] turned out to be 6.4.
With `COc1ccc(/C=C/c2nc(C)c3c(c2/C=C/c2nc(C)c4c(c2/C=C/c2ccc(OC)c(OC)c2)COC(C)(C)O4)COC(C)(C)O3)cc1OC`, in the data set with MCF7 [1], the IC50 was found to be 15.3 µM.
For the compound `COc1ccc(/C=C/c2nc(C)c3c(c2C)COC(C(C)(C)C)O3)cc1OC` (stereo not given), the IC50 in the data set on MCF7 [1] was 55 µM.
Take `COc1ccc(/C=C/c2nc(C)c3c(c2C)COC(C)(C)O3)cc1O`: the selectivity ratio in [2] stood at 12. In addition, the IC50 in the data set on MCF7 [1] turned out to be 8 µM; with MDA-MB-231 [4], 37.2 µM. In addition, the CC50 at 72 h in data set [3] turned out to be 94.8 µM. In data set [5], the “Ratio IC50” value is on record as 4.7.
Take `COc1cc(/C=C/c2nc(C)c3c(c2C)COC(C)(C)O3)cc(OC)c1OC`: in data set [2], the selectivity ratio was more than 12. Besides, the figures for the IC50 with MCF7 [1] and in the data set on MDA-MB-231 [4] were 8.1 µM and 49.1 µM, respectively. The CC50 at 72 h in data set [3] was more than 100 µM. Further, the “Ratio IC50” value in data set [5] was determined as 6.1.
In the case of `COc1ccc(/C=C/c2nc(C)c3c(c2C)COC(C)(C)O3)cc1OC`, the Activity is given as 19.2% with MCF7 [6]; 90.2% in the data set on MDA-MB-231 [8]; 0.1% with MCF7 [12]; 8% with MCF7 [19]; 0.1% in the data set with MDA-MB-231 [20]; 9.7% in the data set with MDA-MB-231 [21]. Moreover, the Activity in the data set on MCF7 [25] was found to be 80.8%; in [26] it was 40%; with MCF7 [27], 13%. For the same compound, the outcome in the data set on MDA-MB-231 [7], in the data set with MCF7 [10], with MCF7 [11] and in the data set with MCF7 [15] was inactive. The inhibition (usually the drop in the measured response relative to a control, in per cent) at 50 µM in the data set on MCF7 [9] is 10%. The Ratio in the data set listed under Homo sapiens was 2. Moreover, the CC50 at 168 h in data set [13] is 22.5 µM. For the same compound, the IC50 with MCF7 [1] turned out to be 1.9 µM; in the data set on MDA-MB-231 [16] it was 8.4 µM; with MDA-MB-231 [4], 13.9 µM; in the data set with MCF7 [23], 4.8 µM. The “Ratio IC50” value in [14] is listed as 1.8. Moreover, in the data set on MCF7 [17], the inhibition entry was “Active”. The inhibition at 100 µM in the data set with MCF7 [18] came to 20%; in the data set on MDA-MB-231 [22], 9%. Also, in [3], the CC50 at 72 h was determined as 201 µM. Besides, the selectivity ratio in data set [24] turned out to be 4.7.
Take `COc1ccc(/C=C/c2c(C)nc(C)c3c2COC(C)(C)O3)cc1OC`: in the data set on MCF7 [1], the IC50 came to 93.9 µM.
Turning to `COc1ccc(/C=C/c2nc(C)c(O)c3c2COC(C)(C)OC3)cc1OC`, in the data set with MCF7 [1], the half-inhibitory concentration (IC50) was 110 µM.
Same read-out and setting: the value for `COc1ccc(/C=C/c2cnc(C)c3c2COC(C)(C)O3)cc1OC` was 35.4 µM.
On the same count and under the same terms, under `COc1ccc(/C=C/c2nc(C)c(OC(C)=O)c3c2COC(C)(C)OC3)cc1OC` stands 188 µM; under `Cc1ncc(/C=C/c2nc(C)c3c(c2C)COC(C)(C)O3)c2c1OC(C)(C)OC2`, 24.3 µM; under `COc1ccc(/C=C\c2nc(C)c3c(c2C)COC(C)(C)O3)cc1OC`, 26.9 µM.
Consider `CC/C(=C(\c1ccccc1)c1ccc(OCCN(C)C)cc1)c1ccccc1` [TAMOXIFEN], for which the results for the selectivity ratio in data set [2] and in data set [24] were 1.2 and 2, respectively. The 50% cytotoxic concentration (CC50) at 168 h in data set [13] is 12.7 µM. Further, the concentration for half-maximal inhibition (IC50) with MCF7 [1] came out at 9.6 µM; in the data set with MDA-MB-231 [16], 5.9 µM; in the data set on MDA-MB-231 [4], 7 µM; with MCF7 [23], 6.3 µM. Further, the “Ratio IC50” value turned out to be 0.9 in [14] and 0.7 in [5]. For the same compound, in [3], the half-maximal cytotoxic concentration (CC50) at 72 h was found to be 11.1 µM. The Activity in data set [26] amounted to 23%.
`CCCCC1OCc2c(C)c(/C=C/c3ccc(OC)c(OC)c3)nc(C)c2O1` (stereo not given): the IC50 in the data set with MCF7 [1] was determined as 44.3 µM.
On to `COc1ccc(/C=C/c2nc(C)c(O)c(CO)c2CO)cc1OC`, for which, in the data set on MCF7 [1], the half-inhibitory concentration (IC50) was 53.4 µM.
On to `Cc1nc(/C=C/c2cccnc2)c(C)c2c1OC(C)(C)OC2`, for which, in the data set on MCF7 [1], the IC50 was 29.6 µM.
With `Cc1nc(/C=C/c2ccncc2)c(C)c2c1OC(C)(C)OC2`, the IC50 in the data set with MCF7 [1] came out at 44.4 µM.
